For 33 compounds, IC50 and inhibition results are on record in US8575156B2, “Cyclic inhibitors of 11β-hydroxysteroid dehydrogenase 1” (Vitae Pharmaceuticals, Inc., priority 2007, dated 2013).

Read-outs that look alike come from different tables or passages of the source. A value given as a limit tells only on which side of the number the result lay.

The target of the experiment is 11β-HSD1 (Homo sapiens, UniProt P28845). As to the kind of experiment: biochemical. As to conditions: for IC50: IC50 Range, Biological Test Example 1, microsomes from CHO cells overexpressing human 11β-HSD1; for inhibition at 0.1111 µM: read-out: Average % inhibition at 111.1 nM, Biological Test Example 1, 111.1 nM compound.
Setting [1] is: read-out: Average % inhibition at 100 nM, Biological Test Example 1, 100 nM compound.
The mark [2] stands for this setting: read-out: Average % inhibition at 100 nM, Biological Test Example 1, 100 nM.

11β-HSD1, sequence (P28845 whole entry): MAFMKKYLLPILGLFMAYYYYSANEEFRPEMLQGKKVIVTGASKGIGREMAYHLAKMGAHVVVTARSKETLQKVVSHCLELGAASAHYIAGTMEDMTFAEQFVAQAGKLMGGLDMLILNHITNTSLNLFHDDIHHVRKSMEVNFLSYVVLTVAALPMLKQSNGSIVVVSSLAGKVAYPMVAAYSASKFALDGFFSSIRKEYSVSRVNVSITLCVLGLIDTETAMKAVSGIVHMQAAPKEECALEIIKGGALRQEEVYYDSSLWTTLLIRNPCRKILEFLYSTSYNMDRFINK

Regarding `C[C@@H](c1ccc(-c2ccc(F)cc2F)cc1)N1CC[C@](CCC(C)(C)O)(c2ccccc2)OC1=O` [EXAMPLE 260, (R)-3-((S)-1-(2′,4′-difluorobiphenyl-4-yl)ethyl)-6-(3-hydroxy-3-methylbutyl)-6-phenyl-1,3-oxazinan-2-one], the concentration for half-maximal inhibition (IC50) (commonly the concentration that inhibits the measured activity by half) is less than 0.1 µM. Besides, the inhibition (commonly how much of the control response was suppressed) at 0.1 µM under setting [1] came to 94.1%.

As for `C=CCC1(c2ccc(F)cc2)CCN([C@@H](C)c2ccc(OC)cc2)C(=O)O1` (single isomer, unassigned) [EXAMPLE 193 Isomer 1], the IC50 was less than 0.1 µM.

Compound `COc1ccc([C@H](C)N2CC[C@](CC(O)CO)(c3ccc(F)cc3)OC2=O)cc1` (single isomer, unassigned) [EXAMPLE 206 Isomer 1] yielded an IC50 of less than 0.1 µM. Further, the inhibition at 0.1 µM under setting [1] stood at 90.3%.

`C[C@@H](c1ccc(-c2ccc(F)cc2)cc1)N1CC[C@](CC(C)(C)C(N)=O)(c2ccccc2)OC1=O` [EXAMPLE 568, 3-((R)-3-((S)-1-(4′-fluorobiphenyl-4-yl)ethyl)-2-oxo-6-phenyl-1,3-oxazinan-6-yl)-2,2-dimethylpropanamide] gave an IC50 of less than 0.1 µM. In addition, the inhibition at 0.1 µM under setting [2] turned out to be 97.7%.

Compound `C[C@@H](C1CCCCC1)N1CC[C@](CCCNS(C)(=O)=O)(c2ccc(F)cc2)OC1=O` [EXAMPLE 319, N-(3-((R)-3-((S)-1-cyclohexylethyl)-6-(4-fluorophenyl)-2-oxo-1,3-oxazinan-6-yl)propyl)methanesulfonamide] returned an IC50 of less than 0.1 µM. Further, the inhibition at 0.1 µM under setting [2] was 93.4%.

As to `COc1cccc([C@H](C)N2CCC(C)(c3ccccc3)OC2=O)c1` (stereo partly drawn) [EXAMPLE 84, 3-((S)-1-(3-methoxyphenyl)ethyl)-6-methyl-6-phenyl-1,3-oxazinan-2-one], the IC50 was less than 0.1 µM and the inhibition at 0.1111 µM came out at 94.6%.

Consider `C[C@@H](c1ccc(Br)cc1)N1CC[C@@](CCC(N)=O)(c2ccc(F)cc2F)OC1=O` (single isomer, unassigned) [EXAMPLE 504 Isomer 1], for which the half-inhibitory concentration (IC50) is less than 0.1 µM. For the same compound, under setting [2], the inhibition at 0.1 µM was 49.9%.

`C[C@@H](c1ccc(F)cc1)N1CC[C@](CCCO)(c2ccccc2)OC1=O` [EXAMPLE 414, (R)-3-((S)-1-(4-fluorophenyl)ethyl)-6-(3-hydroxypropyl)-6-phenyl-1,3-oxazinan-2-one] gave a concentration for half-maximal inhibition (IC50) of less than 0.1 µM. Also, under setting [2], the inhibition at 0.1 µM stood at 94.4%.

For `C=CCC1(c2ccc(F)cc2)CCN(Cc2ccccc2Br)C(=O)O1` (centres unmarked) [EXAMPLE 350, 6-allyl-3-(2-bromobenzyl)-6-(4-fluorophenyl)-1,3-oxazinan-2-one], the IC50 is less than 0.1 µM. For the same compound, the inhibition at 0.1 µM under setting [2] is 91.8%.

Regarding `C[C@@H](c1ccc(-c2ccc(F)cc2)cc1)N1CC[C@](CCN2CCOCC2)(c2ccccc2)OC1=O` [EXAMPLE 491, (R)-3-((S)-1-(4′-fluorobiphenyl-4-yl)ethyl)-6-(2-morpholinoethyl)-6-phenyl-1,3-oxazinan-2-one], the IC50 was less than 0.1 µM. The inhibition at 0.1 µM under setting [2] was 99.3%.

Consider `Cc1ccc([C@H](C)N2CC[C@](CCO)(c3ccc(F)cc3)OC2=O)cc1` [EXAMPLE 421, (S)-6-(4-fluorophenyl)-6-(2-hydroxyethyl)-3-((S)-1-p-tolylethyl)-1,3-oxazinan-2-one], for which the IC50 was less than 0.1 µM. The inhibition at 0.1 µM under setting [2] turned out to be 96.1%.

`C[C@@H](c1ccc(Br)cc1F)N1CC[C@](CCCO)(c2ccc(F)cc2)OC1=O` [EXAMPLE 581, (R)-3-((S)-1-(4-bromo-2-fluorophenyl)ethyl)-6-(4-fluorophenyl)-6-(3-hydroxypropyl)-1,3-oxazinan-2-one] came in with a 50% inhibitory concentration (IC50) of less than 0.1 µM. Further, the inhibition at 0.1 µM under setting [2] is 96.4%.

In the case of `C=CC[C@]1(c2ccc(F)cc2)CCN([C@@H](C)c2ccc(Br)cc2)C(=O)O1` (single isomer, unassigned) [EXAMPLE 110 Isomer 2], the IC50 is less than 0.1 µM and the inhibition at 0.1111 µM was 95%. Also, the inhibition at 0.1 µM under setting [1] was found to be 96.6%.

Turning to `C=CC[C@]1(c2ccc(F)cc2)CCN([C@@H](C)c2ccccc2)C(=O)O1` (single isomer, unassigned) [EXAMPLE 95 Isomer 1], the half-maximal inhibitory concentration (IC50) was less than 0.1 µM and the inhibition at 0.1111 µM stood at 91%.

Regarding `COc1cccc([C@H](C)N2CCC(C)(c3ccccc3)OC2=O)c1` (single isomer, unassigned) [EXAMPLE 84 Isomer 1], the IC50 is less than 0.1 µM and the inhibition at 0.1111 µM is 74.8%.

Consider `CNS(=O)(=O)c1ccc(-c2cccc(N3CCC(C)(c4ccccc4)OC3=O)c2)cc1` (centres unmarked) [EXAMPLE 47, N-methyl-3′-(6-methyl-2-oxo-6-phenyl-1,3-oxazinan-3-yl)biphenyl-4-sulfonamide], for which the IC50 is 0.1 to 1 µM and the inhibition at 0.1111 µM is 36.3%.

Take `C[C@@H](c1cccc(OCC(C)(C)O)c1)N1CCC(C)(c2ccccc2)OC1=O` (mixture of isomers) [EXAMPLE 93]: the IC50 was 0.1 to 1 µM and the inhibition at 0.1111 µM was 45.3%.

`C[C@@H](c1ccc(Cl)c(F)c1)N1CC[C@](CCO)(c2ccc(F)cc2)OC1=O` [EXAMPLE 533, (S)-3-((S)-1-(4-chloro-3-fluorophenyl)ethyl)-6-(4-fluorophenyl)-6-(2-hydroxyethyl)-1,3-oxazinan-2-one] returned an IC50 of less than 0.1 µM. For the same compound, the inhibition at 0.1 µM under setting [2] came out at 94.5%.

In the case of `C[C@@H](c1ccc(Br)cc1)N1CC[C@](CC2(O)CC2)(c2ccc(F)cc2)OC1=O` [EXAMPLE 500, (S)-3-((S)-1-(4-bromophenyl)ethyl)-6-(4-fluorophenyl)-6-((1-hydroxycyclopropyl)methyl)-1,3-oxazinan-2-one], the 50% inhibitory concentration (IC50) was less than 0.1 µM. In addition, the inhibition at 0.1 µM under setting [2] is 98.2%.

As for `C[C@@H](c1ccc(F)cc1)N1CC[C@](CC(C)(C)O)(c2ccc(F)cc2)OC1=O` [EXAMPLE 407, (S)-6-(4-fluorophenyl)-3-((S)-1-(4-fluorophenyl)ethyl)-6-(2-hydroxy-2-methylpropyl)-1,3-oxazinan-2-one], the 50% inhibitory concentration (IC50) was less than 0.1 µM. Further, the inhibition at 0.1 µM under setting [2] worked out at 94.7%.

Consider `C[C@@H](c1ccc(C(F)(F)F)cc1)N1CC[C@](CCO)(c2ccc(F)cc2)OC1=O` [EXAMPLE 387, (S)-6-(4-fluorophenyl)-6-(2-hydroxyethyl)-3-((S)-1-(4-(trifluoromethyl)phenyl)ethyl)-1,3-oxazinan-2-one], for which the IC50 was less than 0.1 µM. Besides, the inhibition at 0.1 µM under setting [2] came out at 95.8%.

As for `C[C@@H](c1ccc(C(F)(F)F)cc1)N1CC[C@](CC(C)(C)O)(c2ccccc2)OC1=O` [EXAMPLE 400, (S)-6-(2-hydroxy-2-methylpropyl)-6-phenyl-3-((S)-1-(4-(trifluoromethyl)phenyl)ethyl)-1,3-oxazinan-2-one], the IC50 is less than 0.1 µM. Further, the inhibition at 0.1 µM under setting [2] was found to be 96.8%.

Turning to `COc1ccc([C@H](C)N2CCC(C)(c3ccccc3)OC2=O)cc1` (single isomer, unassigned) [EXAMPLE 85 Isomer 1], the IC50 is less than 0.1 µM and the inhibition at 0.1111 µM amounted to 93.1%.

`CC[C@@H](c1ccc(Br)cc1)N1CC[C@](CCCO)(c2ccccc2)OC1=O` [EXAMPLE 220, (R)-3-((S)-1-(4-bromophenyl)propyl)-6-(3-hydroxypropyl)-6-phenyl-1,3-oxazinan-2-one] came in with an IC50 of less than 0.1 µM. Besides, the inhibition at 0.1 µM (read-out: Average % inhibition at 100 nM) worked out at 85.5%.

`CC[C@@H](c1ccc(Br)cc1)N1CC[C@](CCC(N)=O)(c2ccc(F)cc2)OC1=O` [EXAMPLE 368, 3-((R)-3-((S)-1-(4-bromophenyl)propyl)-6-(4-fluorophenyl)-2-oxo-1,3-oxazinan-6-yl)propanamide]: the IC50 was less than 0.1 µM. The inhibition at 0.1 µM under setting [2] was found to be 96.9%.

Compound `C=CC[C@]1(c2ccc(F)cc2)CCN([C@@H](C)c2ccc(-c3nnc(C)o3)cc2)C(=O)O1` [EXAMPLE 215, (R)-6-allyl-6-(4-fluorophenyl)-3-((S)-1-(4-(5-methyl-1,3,4-oxadiazol-2-yl)phenyl)ethyl)-1,3-oxazinan-2-one] returned an IC50 of less than 0.1 µM. The inhibition at 0.1 µM under setting [1] was 72.1%.

Regarding `C[C@@H](C1CCCCC1)N1CC[C@](CCC(N)=O)(c2ccc(F)cc2)OC1=O` [EXAMPLE 317, 3-((R)-3-((S)-1-cyclohexylethyl)-6-(4-fluorophenyl)-2-oxo-1,3-oxazinan-6-yl)propanamide], the half-maximal inhibitory concentration (IC50) was less than 0.1 µM. For the same compound, the inhibition at 0.1 µM under setting [2] worked out at 87.5%.

The compound `CC(O)C[C@]1(c2ccccc2)CCN([C@@H](C)c2ccc(-c3ccc(F)cc3)cc2)C(=O)O1` (single isomer, unassigned) [EXAMPLE 224 Isomer 1] displayed an IC50 of less than 0.1 µM. Under setting [1], the inhibition at 0.1 µM stood at 100%.

The compound `CC(O)C[C@]1(c2ccccc2)CCN([C@@H](C)c2ccc(-c3ccc(F)cc3)cc2)C(=O)O1` (stereo partly drawn) [EXAMPLE 224, (6S)-3-((1S)-1-(4′-fluorobiphenyl-4-yl)ethyl)-6-(2-hydroxypropyl)-6-phenyl-1,3-oxazinan-2-one] came in with a half-inhibitory concentration (IC50) of less than 0.1 µM. Besides, the inhibition at 0.1 µM under setting [1] came to 97.3%.

Consider `O=C1OC(CCO)(c2ccc(F)cc2)CCN1c1cccc(-c2ccc(F)cc2Cl)n1` (centres unmarked) [EXAMPLE 118, 3-(6-(2-chloro-4-fluorophenyl)pyridin-2-yl)-6-(4-fluorophenyl)-6-(2-hydroxyethyl)-1,3-oxazinan-2-one], for which the IC50 is less than 0.1 µM and the inhibition at 0.1111 µM came out at 96.8%.

In turn, `C[C@@H](c1ccc(Br)cc1)N1CC[C@](CCCO)(c2ccccc2)OC1=O` [EXAMPLE 392, (R)-3-((S)-1-(4-bromophenyl)ethyl)-6-(3-hydroxypropyl)-6-phenyl-1,3-oxazinan-2-one] showed an IC50 of less than 0.1 µM.

For `C[C@@H](c1ccc(Cl)cc1)N1CC[C@](CCO)(c2ccccc2)OC1=O` [EXAMPLE 401, (S)-3-((S)-1-(4-chlorophenyl)ethyl)-6-(2-hydroxyethyl)-6-phenyl-1,3-oxazinan-2-one], the IC50 was less than 0.1 µM. Under setting [2], the inhibition at 0.1 µM came to 98.6%.

For the compound `C[C@@H](c1ccc(Br)cc1)N1CC[C@](C)(c2ccc(F)cc2)OC1=O` (single isomer, unassigned) [EXAMPLE 518 Isomer 2], the IC50 was less than 0.1 µM. In addition, the inhibition at 0.1 µM under setting [2] was determined as 98%.
